Assay results taken from the supplement of paper PMC10307832.

Columns and labels:
Experiment in all cases: relative viability (nuclei count vs DMSO), 5 days (fraction); higher = more cells survive
[1] = compound: CN(c1ncccc1CNc1nc(Nc2ccc3c(c2)CC(=O)N3)ncc1C(F)(F)F)S(C)(=O)=O
Procedure, shortened: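 Acceptance criteria were a control CV below 25% and at least one doubling per plate. Lung cancer cell lines in 1536-well plates got five library-drug doses (not always all listed) √10 apart by pinning and were left 5 days with no medium change. Viability divides treated-well nuclei by vehicle-well nuclei and is the median across plates. Nuclei were counted by MetaXpress from 4× Hoechst images.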

[2] = compound: CN(c1ncccc1CNc1nc(Nc2ccc3c(c2)CC(=O)N3)ncc1C(F)(F)F)S(C)(=O)=O + CC(C)C[C@H](NC(=O)[C@H](Cc1ccccc1)NC(=O)c1cnccn1)B(O)O [Bortezomib] (partner 0.002 µM)
Procedure, shortened: (§1)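 Lung cancer cell lines, seeded in 1536-well plates, were treated the following day by pin tool with a single drug or with five library-drug doses (not always all listed) in √10 steps on top of a fixed anchor-drug dose. Cells were fixed and nuclei stained in one step after 5 days, and nuclei were counted. Relative viability is the nuclei count for treated wells divided by that for vehicle wells, reported as medians of duplicate plates.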

[3] = compound: CN(c1ncccc1CNc1nc(Nc2ccc3c(c2)CC(=O)N3)ncc1C(F)(F)F)S(C)(=O)=O + CC1(C)CCC(c2ccc(Cl)cc2)=C(CN2CCN(c3ccc(C(=O)NS(=O)(=O)c4ccc(N[C@H](CCN5CCOCC5)CSc5ccccc5)c(S(=O)(=O)C(F)(F)F)c4)cc3)CC2)C1 [Navitoclax] (partner 0.5 µM)
Procedure, shortened: as §1

[4] = compound: CN(c1ncccc1CNc1nc(Nc2ccc3c(c2)CC(=O)N3)ncc1C(F)(F)F)S(C)(=O)=O + COc1cc2c(Oc3ccc(NC(=O)C4(C(=O)Nc5ccc(F)cc5)CC4)cc3F)ccnc2cc1OCCCN1CCOCC1 [Foretinib] (partner 0.25 µM)
Procedure, shortened: as §1

[5] = compound: CN(c1ncccc1CNc1nc(Nc2ccc3c(c2)CC(=O)N3)ncc1C(F)(F)F)S(C)(=O)=O + CS(=O)(=O)CCNCc1ccc(-c2ccc3ncnc(Nc4ccc(OCc5cccc(F)c5)c(Cl)c4)c3c2)o1 [Lapatinib] (partner 2 µM)
Procedure, shortened: as §1

[6] = compound: CN(c1ncccc1CNc1nc(Nc2ccc3c(c2)CC(=O)N3)ncc1C(F)(F)F)S(C)(=O)=O + CS(=O)(=O)N1CCN(Cc2cc3nc(-c4cccc5[nH]ncc45)nc(N4CCOCC4)c3s2)CC1 [Pictilisib] (partner 1 µM)
Procedure, shortened: as §1

[7] = compound: CN(c1ncccc1CNc1nc(Nc2ccc3c(c2)CC(=O)N3)ncc1C(F)(F)F)S(C)(=O)=O + C[C@@H](Oc1cc(-c2cnn(C3CCNCC3)c2)cnc1N)c1c(Cl)ccc(F)c1Cl [Crizotinib] (partner 1 µM)
Procedure, shortened: as §1

[8] = compound: CN(c1ncccc1CNc1nc(Nc2ccc3c(c2)CC(=O)N3)ncc1C(F)(F)F)S(C)(=O)=O + C[C@]1(O)C[C@@H](c2nc(-c3ccc4ccc(-c5ccccc5)nc4c3)c3c(N)nccn32)C1 [Linsitinib] (partner 1 µM)
Procedure, shortened: as §1

[9] = compound: CN(c1ncccc1CNc1nc(Nc2ccc3c(c2)CC(=O)N3)ncc1C(F)(F)F)S(C)(=O)=O + Cc1nc(NC(=O)N2CCC[C@H]2C(N)=O)sc1-c1ccnc(C(C)(C)C(F)(F)F)c1 [Alpelisib] (partner 2 µM)
Procedure, shortened: as §1

[10] = compound: CN(c1ncccc1CNc1nc(Nc2ccc3c(c2)CC(=O)N3)ncc1C(F)(F)F)S(C)(=O)=O + O=C(CCCCCCC(=O)Nc1ccccc1)NO [Vorinostat] (partner 1 µM)
Procedure, shortened: as §1

[11] = compound: CN(c1ncccc1CNc1nc(Nc2ccc3c(c2)CC(=O)N3)ncc1C(F)(F)F)S(C)(=O)=O + O=C(c1cc(Cc2n[nH]c(=O)c3ccccc23)ccc1F)N1CCN(C(=O)C2CC2)CC1 [Olaparib] (partner 8 µM)
Procedure, shortened: as §1

IA-LM
relative viability ([1]; 0.01 µM): 0.899
relative viability ([1]; 0.03162 µM): 1.11
relative viability ([1]; 0.1 µM): 0.912
relative viability ([1]; 0.3162 µM): 0.823
relative viability ([1]; 1 µM): 0.805
relative viability ([2]; first compound 0.01 µM): 0.807
relative viability ([2]; first compound 0.03162 µM): 0.886
relative viability ([2]; first compound 0.1 µM): 0.727
relative viability ([2]; first compound 0.3162 µM): 0.877
relative viability ([2]; first compound 1 µM): 0.666
relative viability ([3]; first compound 0.01 µM): 0.712
relative viability ([3]; first compound 0.03162 µM): 0.726
relative viability ([3]; first compound 0.1 µM): 0.786
relative viability ([3]; first compound 0.3162 µM): 0.788
relative viability ([3]; first compound 1 µM): 0.654
relative viability ([4]; first compound 0.01 µM): 1.25
relative viability ([4]; first compound 0.03162 µM): 1.17
relative viability ([4]; first compound 0.1 µM): 0.917
relative viability ([4]; first compound 0.3162 µM): 1.27
relative viability ([4]; first compound 1 µM): 0.874
relative viability ([5]; first compound 0.01 µM): 0.884
relative viability ([5]; first compound 0.03162 µM): 0.82
relative viability ([5]; first compound 0.1 µM): 0.887
relative viability ([5]; first compound 0.3162 µM): 0.608
relative viability ([5]; first compound 1 µM): 0.56
relative viability ([6]; first compound 0.01 µM): 0.348
relative viability ([6]; first compound 0.03162 µM): 0.292
relative viability ([6]; first compound 0.1 µM): 0.309
relative viability ([6]; first compound 0.3162 µM): 0.32
relative viability ([6]; first compound 1 µM): 0.276
relative viability ([7]; first compound 0.01 µM): 0.862
relative viability ([7]; first compound 0.03162 µM): 0.924
relative viability ([7]; first compound 0.1 µM): 0.908
relative viability ([7]; first compound 0.3162 µM): 0.91
relative viability ([7]; first compound 1 µM): 0.714
relative viability ([8]; first compound 0.01 µM): 0.6
relative viability ([8]; first compound 0.03162 µM): 0.54
relative viability ([8]; first compound 0.1 µM): 0.583
relative viability ([8]; first compound 1 µM): 0.599
relative viability ([9]; first compound 0.01 µM): 0.631
relative viability ([9]; first compound 0.03162 µM): 0.884
relative viability ([9]; first compound 0.1 µM): 0.637
relative viability ([9]; first compound 0.3162 µM): 0.649
relative viability ([9]; first compound 1 µM): 0.688
relative viability ([10]; first compound 0.01 µM): 0.991
relative viability ([10]; first compound 0.03162 µM): 1.12
relative viability ([10]; first compound 0.1 µM): 0.801
relative viability ([10]; first compound 0.3162 µM): 0.859
relative viability ([10]; first compound 1 µM): 0.86
relative viability ([11]; first compound 0.01 µM): 0.758
relative viability ([11]; first compound 0.03162 µM): 0.959
relative viability ([11]; first compound 0.1 µM): 0.802
relative viability ([11]; first compound 1 µM): 0.66
